Target: T1, hFXR (Homo sapiens, UniProt Q96RI1)
T1 construct: expressed in transfected cells; host or cells: CV-1 cells
T1 sequence (Q96RI1 1-486): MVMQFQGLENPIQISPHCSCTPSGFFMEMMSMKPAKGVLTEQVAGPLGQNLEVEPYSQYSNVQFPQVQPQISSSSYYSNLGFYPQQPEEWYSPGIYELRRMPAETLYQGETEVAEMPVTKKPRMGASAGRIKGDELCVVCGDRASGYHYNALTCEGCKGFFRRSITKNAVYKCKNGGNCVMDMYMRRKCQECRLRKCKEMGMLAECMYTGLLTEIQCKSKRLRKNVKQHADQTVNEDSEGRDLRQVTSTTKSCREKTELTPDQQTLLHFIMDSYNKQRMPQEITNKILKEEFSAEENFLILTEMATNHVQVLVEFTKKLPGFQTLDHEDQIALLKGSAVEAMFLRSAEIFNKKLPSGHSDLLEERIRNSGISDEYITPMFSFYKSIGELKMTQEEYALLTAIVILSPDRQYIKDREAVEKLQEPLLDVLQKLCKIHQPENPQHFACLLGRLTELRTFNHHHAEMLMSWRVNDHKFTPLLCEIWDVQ
T1 sequence (P19793 1-462 partner): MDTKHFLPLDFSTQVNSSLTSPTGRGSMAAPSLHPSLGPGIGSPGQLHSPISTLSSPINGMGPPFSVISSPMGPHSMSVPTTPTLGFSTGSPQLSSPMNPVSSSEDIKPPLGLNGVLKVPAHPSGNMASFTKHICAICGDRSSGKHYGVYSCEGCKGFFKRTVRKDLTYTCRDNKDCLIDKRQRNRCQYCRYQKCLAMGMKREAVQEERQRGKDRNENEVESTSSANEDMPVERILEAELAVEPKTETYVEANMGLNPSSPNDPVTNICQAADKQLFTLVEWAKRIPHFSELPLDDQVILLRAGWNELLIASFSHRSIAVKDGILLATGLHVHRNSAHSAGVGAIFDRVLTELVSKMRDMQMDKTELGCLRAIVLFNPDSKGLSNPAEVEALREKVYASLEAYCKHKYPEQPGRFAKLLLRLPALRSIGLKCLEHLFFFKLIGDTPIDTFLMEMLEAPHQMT
Experiment: In Vitro FXR Assay (TK)
Format: cell-based
Conditions: CV-1 cells transfected with hFXR, hRXR, TK-ECRE-luc and pCMX-YFP; incubated with compound for 18 hrs; luminescence
Procedure, shortened: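 Luminescence from a TK-ECRE-luc reporter was read after 18 h of compound exposure in CV-1 cells. These cells were grown in charcoal-stripped FBS medium and transiently transfected with hFXR, hRXR and YFP expression plasmids.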

Row | Compound | EC50 [nM]
1 | COc1ncc(C23CCC(CN(c4cc(-c5cnn(C(C)C)c5)ccn4)C(=O)[C@H]4CC[C@H](CC(=O)O)CC4)(CC2)CC3)cc1C [Compound 4.12, trans-2-(4-((4-(1-Isopropyl-1H-pyrazol-4-yl)pyridin-2-yl)((4-(6-methoxy-5-methylpyridin-3-yl)bicyclo[2.2.2]octan-1-yl)methyl)carbamoyl)cyclohexyl)acetic acid] | ≤ 50
2 | COc1ccc(C23CCC(CN(C(=O)[C@@H]4CCC[C@H](C(=O)O)C4)c4cc(-c5cnn(C(C)C)c5)ccn4)(CC2)CC3)cc1C (relative stereo) [Compound 3.05, cis-3-((4-(1-Isopropyl-1H-pyrazol-4-yl)pyridin-2-yl)((4-(4-methoxy-3-methylphenyl)bicyclo[2.2.2]octan-1-yl)methyl)carbamoyl)cyclohexanecarboxylic acid] | 1000 to 10000
3 | COc1ccc(C23CCC(CN(c4cc(-c5cnn(C(C)C)c5)ccn4)C(=O)[C@H]4CC[C@H](CC(=O)O)CC4)(CC2)CC3)cc1C [Compound 1.01, trans-2-(4-((4-(1-Isopropyl-1H-pyrazol-4-yl)pyridin-2-yl)((4-(4-methoxy-3-methylphenyl)bicyclo[2.2.2]octan-1-yl)methyl)carbamoyl)cyclohexyl)acetic acid] | ≤ 50
4 | COc1ccc(C23CCC(CN(c4cc(-c5coc(C(C)C)n5)ccn4)C(=O)[C@H]4CC[C@H](CC(=O)O)CC4)(CC2)CC3)cc1C [Compound 4, trans-2-(4-((4-(2-Isopropyloxazol-4-yl)pyridin-2-yl)((4-(4-methoxy-3-methylphenyl)bicyclo[2.2.2]octan-1-yl)methyl)carbamoyl)cyclohexyl)acetic acid] | ≤ 50
5 | COc1ncc(C23CCC(CN(c4cccc(-c5cnn(C(C)C)c5)c4)C(=O)[C@H]4CC[C@H](CC(=O)O)CC4)(CC2)CC3)cc1C [Compound 4.11, trans-2-(4-((3-(1-Isopropyl-1H-pyrazol-4-yl)phenyl)((4-(6-methoxy-5-methylpyridin-3-yl)bicyclo[2.2.2]octan-1-yl)methyl)carbamoyl)cyclohexyl)acetic acid] | ≤ 50

Results, then the molecule that gave them:

Row | EC50 [nM] | Compound
6 | 50 to 1000 | COc1ccc(C23CCC(CN(c4cc(-c5nc(C(C)C)no5)ccn4)C(=O)[C@H]4CC[C@H](CC(=O)O)CC4)(CC2)CC3)cc1C [Compound 4.20, trans-2-(4-((4-(3-Isopropyl-1,2,4-oxadiazol-5-yl)pyridin-2-yl)((4-(4-methoxy-3-methylphenyl)bicyclo[2.2.2]octan-1-yl)methyl)carbamoyl)cyclohexyl)acetic acid]
7 | ≤ 50 | COc1ccc(C23CCC(CN(c4cc(-c5coc(C(C)(C)C)n5)ccn4)C(=O)[C@H]4CC[C@H](CC(=O)O)CC4)(CC2)CC3)cc1C [Compound 4.18, trans-2-(4-((4-(2-(tert-Butyl)oxazol-4-yl)pyridin-2-yl)((4-(4-methoxy-3-methylphenyl)bicyclo[2.2.2]octan-1-yl)methyl)carbamoyl)cyclohexyl)acetic acid]
8 | 50 to 1000 | COc1ccc(C23CCC(CN(c4cc(-c5cnn(C(C)C)c5)ccn4)C(=O)[C@H]4CC[C@@H](CC(=O)O)CC4)(CC2)CC3)cc1C [Compound 5.02, cis-2-(4-((4-(1-Isopropyl-1H-pyrazol-4-yl)pyridin-2-yl)((4-(4-methoxy-3-methylphenyl)bicyclo[2.2.2]octan-1-yl)methyl)carbamoyl)cyclohexyl)acetic acid]
9 | 50 to 1000 | COc1ccc(C23CCC(CN(c4cc(-n5cc(C(C)C)cn5)ccn4)C(=O)[C@H]4CC[C@H](CC(=O)O)CC4)(CC2)CC3)cc1C [Compound 4.22, trans-2-(4-((4-(4-Isopropyl-1H-pyrazol-1-yl)pyridin-2-yl)((4-(4-methoxy-3-methylphenyl)bicyclo[2.2.2]octan-1-yl)methyl)carbamoyl)cyclohexyl)acetic acid]

From patent publication US20220054469A1, “FARNESOID X RECEPTOR AGONISTS AND USES THEREOF” (Metacrine, Inc., priority 2018, published 2022)
